Experimental data published in patent US8691195B2, “Peptide having activity of transforming growth factor and production method therefor” (Caregen Co., Ltd., priority 2009, dated 2014).
Ends that are not written are not given here.

Experiments:
[1] = Heat stability: residual activity by MTT assay after storage at 40° C.; assay type: physicochemical; details: days 0-100, MTT assay, FIG. 3
Description: To evaluate heat stability of the peptide 2 prepared in Example 1, the peptide 2 was dissolved in 50 mM Tris-HCl buffer (pH 8.0) to a concentration of 10 μg/ml. Recombinant TGF-β1 (Sigma) as control was produced from E. coli and dissolved in 50 mM Tris-HCl buffer (pH 8.0) at a concentration of 1 μg/ml. The prepared solutions were introduced into glass vials and kept to stand at 40° C. Afterwards, the solutions were taken on days 0, 1, 10, 25, 50, 75 and 100, and subjected to MTT assay (Scudiero, D. A., et al., Cancer Res., 48: 4827-4833 (1988)) to determine residual activities of the peptide and recombinant TGF-β1 (FIG. 3).

tyrosinase = assay: Tyrosinase activity in α-MSH-treated B16F10 cells (L-DOPA, absorbance at 405 nm); assay type: cell-based; details: 4 days, FIG. 6
Description: For verifying effects on skin whitening of the peptide synthesized in Example 1 and TGF-β, cells were treated with α-MSH and the inhibition in melanin generation was measured. B16F10 cells (Korean Cell Line Bank) were inoculated in a density of 1×10^5 cells/well and cultured in DMEM for 3 days. After cell adhesion was observed, medium was changed with a fresh medium containing 2% serum. Cells were incubated with each test group for 4 days: (a) no treatment as negative control; (b) 200 μg/ml α-MSH as a positive control; and (c) 200 μg/ml α-MSH plus 1 μg/ml or 10 μg/ml peptide 2. […] Subsequently, cells were harvested and treated with a lysis buffer to extract total proteins. The extracted proteins were quantitated by the BCA (bicinchonic acid) method. For each experiment group, 90 μl of protein solution and 10 μl of L-DOPA (L-3,4-dihydroxyphenylalanine; Sigma) were added and reacted for 30 min at 37° C. The resultants were analyzed to measure their absorbance values at 405 nm for evaluating tyrosinase activities.

B16F10 melanoma cells = assay: Melanosome changes / cell morphology in α-MSH-treated B16F10 melanoma cells; assay type: cell-based; details: 200 μg/ml α-MSH plus 10 μg/ml peptide, 4 days, FIG. 7
Description: (§1) First, B16F10 cells were plated at a 6-well plate in a density of 1×10^5 cells/well and cultured for 3 days. After cell adhesion was observed, medium was changed with a fresh medium containing 2% serum. Cells were incubated with each test group for 4 days: (a) no treatment as negative control; (b) 200 μg/ml α-MSH as a positive control; and (c) 200 μg/ml α-MSH plus 10 μg/ml peptide 2.

[2] = system: TRP1 (tyrosinase-related protein-1); assay: RT-PCR of TRP1 mRNA in α-MSH-treated B16F10 melanoma cells; assay type: cell-based; details: 200 μg/ml α-MSH plus 10 μg/ml peptide, 4 days, FIG. 8
Description: (§2) To more clearly check activities of TGF-mimicking peptide on skin whitening in α-MSH-treated B16F10 melanoma cells, mRNA level of TRP1 (tyrosinase-related protein-1), TRP2 and MITF (microphthalmia-associated transcription factor) was measured using RT-PCR.
as §1
(§3) Subsequently, mRNA were extracted from cells and RT-PCR was carried out using primers for TRP1, TRP2 and MITF. The primer sequence is as follows: TRP1 F-primer, 5′-[…]-3′ and TRP1 R-primer, 5′-[…]-3′; TRP2 F-primer, 5′-[…]-3′ and TRP2 R-primer, 5′-[…]-3′; and MITF F-primer, 5′-[…]-3′ and MITF R-primer, 5′-[…]-3′.

TRP2 = assay: RT-PCR of TRP2 mRNA in α-MSH-treated B16F10 melanoma cells; assay type: cell-based; details: 200 μg/ml α-MSH plus 10 μg/ml peptide, 4 days, FIG. 8
Description: as §2, §1, §3

[3] = system: MITF (microphthalmia-associated transcription factor); assay: RT-PCR of MITF mRNA in α-MSH-treated B16F10 melanoma cells; assay type: cell-based; details: 200 μg/ml α-MSH plus 10 μg/ml peptide, 4 days, FIG. 8
Description: as §2, §1, §3

procollagen = assay: Procollagen production in NIH3T3 fibroblasts (Procollagen ELISA kit); assay type: cell-based; details: NIH3T3, 1 μg/ml or 10 μg/ml, 72 hr, FIG. 9
Description: (§4) NIH3T3 cells cultured for 48 hr were incubated with the peptide of the present invention with a concentration of 1 μg/ml or 10 μg/ml for 72 hr, respectively. The levels of procollagen and fibronectin, indicators to show the improvement in skin wrinkle, were examined. The quantification was performed using Procollagen ELISA kit (Takara, Japan) and Fibronectin ELISA kit (CHEMICON, USA).

fibronectin = assay: Fibronectin production in NIH3T3 fibroblasts (Fibronectin ELISA kit); assay type: cell-based; details: NIH3T3, 1 μg/ml or 10 μg/ml, 72 hr, FIG. 10
Description: as §4

C57BL/6 Mice melanocytes = assay: Inhibition of melanin generation in α-MSH-treated melanocytes; assay type: cell-based; details: 200 μg/ml α-MSH alone (positive control), 3 days, FIG. 4
Description: To evaluate reduction of melanin pigment by the peptide 2 synthesized in Example 1, C57BL/6 Mice melanocytes cultured were incubated with α-MSH (melanocyte stimulating hormone; Sigma) and then with the peptide in the determined concentrations to measure inhibition effects on melanin generation. Mice melanocytes were cultured in DMEM (Dulbecco's modified Eagle's media; Sigma) supplemented with 10% FBS (fetal bovine serum; Sigma) at 37° C. under 5% CO2 conditions. Cells were cultured in a 24-well culture plate with a density of 1×10^5 cells/well and their adhesion to the plate was observed. Then, cells were incubated with each test group for 3 days: (a) a solvent as control; (b) 200 μg/ml α-MSH as a positive control; and (c) 200 μg/ml α-MSH plus 1 μg/ml or 10 μg/ml peptide 2. The test materials were prepared in such a manner that each component was dissolved in medium solvent and diluted at an equivalent rate to the aforementioned concentration using a mixed solvent of propylene glycol:ethanol:distilled water (5:3:2). After removing culture medium by centrifugation, melanin contents in each group could be observed with naked eye. […]
More specifically, cells were washed with PBS (phosphate buffered saline) and treated with 1 N sodium hydroxide. The resultants were analyzed to measure their absorbance values at 400 nm. […]

NH2-Gly-Arg-Gly-Asp-Tyr-Ile-Trp-Ser-Leu-Asp-Thr-Gln-OH (H-GRGDYIWSLDTQ-OH) [peptide 2]
residual activity over time (heat stability) ([1]; 10 μg/ml in 50 mM Tris-HCl buffer (pH 8.0)): not to be decreased over time
reduction of tyrosinase activity (tyrosinase; 200 μg/ml α-MSH plus 1 μg/ml or 10 μg/ml peptide, versus α-MSH only): about 30%
α-MSH-induced melanosomes (B16F10 melanoma cells): eliminated
mRNA level of TRP1 [2]: inhibit
mRNA level of TRP2 (TRP2): inhibit
mRNA level of MITF [3]: inhibit
production of procollagen (procollagen): remarkably promote
level of fibronectin (fibronectin): increase

recombinant TGF-β1: Recombinant TGF-β1 (Sigma) produced from E. coli, used as control
residual activity over time (heat stability) ([1]; 1 μg/ml in 50 mM Tris-HCl buffer (pH 8.0)): sharply decreased with the lapse of time

α-MSH: melanocyte stimulating hormone (Sigma), inducer of melanin generation, positive control (SYSMEHFRWGKPV; ends and bridges not checked; UniProt P01189 138-150, looked up) [reference compound]
melanin content (C57BL/6 Mice melanocytes): strikingly increased
tyrosinase activity (tyrosinase; 200 μg/ml α-MSH only): highly elevated level
